How the values were obtained:
Trametinib = compound: CC(=O)Nc1cccc(-n2c(=O)n(C3CC3)c(=O)c3c(Nc4ccc(I)cc4F)n(C)c(=O)c(C)c32)c1 [Trametinib]; settings: max 1 µM
How it was run: (§1)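 After 24 hours at 37°C and 5% CO2 in 1536-well plates holding 7.5 μl of DMEM/F12 or RPMI with 10% FBS, cancer cell lines were dosed for 72 hours, with final DMSO typically 0.2%. Viability came from CellTiter-Glo 2.0 luminescence, scaled between the means of blank wells and DMSO wells. A non-linear mixed effects model fitted a two-parameter logistic curve to each dose response to give the single-agent IC50.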

MK-2206 = compound: NC1(c2ccc(-c3nc4ccn5c(=O)[nH]nc5c4cc3-c3ccccc3)cc2)CCC1 [MK-2206]; settings: max 10 µM
How it was run: as §1

AZD7648 = compound: Cc1cc2ncnn2cc1Nc1ncc2c(n1)n(C1CCOCC1)c(=O)n2C [AZD7648]; settings: max 10 µM
How it was run: as §1

[1] = compound: O=C(Nc1ccc2[nH]nc(-c3ccncc3)c2c1)[C@@H]1CCN(CC(=O)N2CCN(c3ccc(-c4ncccn4)cc3)CC2)C1; settings: max 5 µM
How it was run: as §1

AZD5363 = compound: C1CN(CCC1(C(=O)N[C@@H](CCO)C2=CC=C(C=C2)Cl)N)C3=NC=NC4=C3C=CN4 [AZD5363]; settings: max 10 µM
How it was run: as §1

AZD6738 = compound: C[C@@H]1COCCN1C2=NC(=NC(=C2)C3(CC3)[S@](=N)(=O)C)C4=C5C=CNC5=NC=C4 [AZD6738]; settings: max 10 µM
How it was run: as §1

Crizotinib = compound: C[C@@H](Oc1cc(-c2cnn(C3CCNCC3)c2)cnc1N)c1c(Cl)ccc(F)c1Cl [Crizotinib]; settings: max 10 µM
How it was run: as §1

AZD5991 = compound: Cc1c2c(nn1C)CSCc1cc(n(C)n1)CSc1cc(c3ccccc3c1)OCCCc1c(C(=O)O)n(C)c3c-2c(Cl)ccc13 [AZD5991]; settings: max 1 µM
How it was run: as §1

Taselisib = compound: Cc1nc(-c2cn3c(n2)-c2ccc(-c4cnn(C(C)(C)C(N)=O)c4)cc2OCC3)n(C(C)C)n1 [Taselisib]; settings: max 10 µM
How it was run: as §1

Lapatinib = compound: CS(=O)(=O)CCNCc1ccc(-c2ccc3ncnc(Nc4ccc(OCc5cccc(F)c5)c(Cl)c4)c3c2)o1 [Lapatinib]; settings: max 10 µM
How it was run: as §1

SG3199 = compound: CC1=CN2[C@@H](C1)C=NC3=CC(=C(C=C3C2=O)OC)OCCCCCOC4=C(C=C5C(=C4)N=C[C@@H]6CC(=CN6C5=O)C)OC [SG3199]; settings: max 0.001 µM
How it was run: as §1

5-Fluorouracil = compound: O=c1[nH]cc(F)c(=O)[nH]1 [5-Fluorouracil]; settings: max 20 µM
How it was run: as §1

AZD0156 = compound: CN(C)CCCOc1ccc(-c2ccc3ncc4c(c3c2)n(C2CCOCC2)c(=O)n4C)cn1 [AZD0156]; settings: max 3 µM
How it was run: as §1

Olaparib = compound: O=C(c1cc(Cc2n[nH]c(=O)c3ccccc23)ccc1F)N1CCN(C(=O)C2CC2)CC1 [Olaparib]; settings: max 10 µM
How it was run: as §1

Savolitinib = compound: C[C@@H](c1ccc2nccn2c1)n1nnc2ncc(-c3cnn(C)c3)nc21 [Savolitinib]; settings: max 1 µM
How it was run: as §1

Palbociclib = compound: CC(=O)c1c(C)c2cnc(Nc3ccc(N4CCNCC4)cn3)nc2n(C2CCCC2)c1=O [Palbociclib]; settings: max 10 µM
How it was run: as §1

AZD1775 = compound: C=CCn1c(=O)c2cnc(Nc3ccc(N4CCN(C)CC4)cc3)nc2n1-c1cccc(C(C)(C)O)n1 [AZD1775]; settings: max 3 µM
How it was run: as §1

AZD2811 = compound: CCN(CCO)CCCOc1ccc2c(Nc3cc(CC(=O)Nc4cccc(F)c4)[nH]n3)ncnc2c1 [AZD2811]; settings: max 1 µM
How it was run: as §1

Selumetinib = compound: Cn1cnc2c(F)c(Nc3ccc(Br)cc3Cl)c(C(=O)NOCCO)cc21 [Selumetinib]; settings: max 10 µM
How it was run: as §1

Carboplatin = compound: C1CC(C1)(C(=O)[O-])C(=O)[O-].N.N.[Pt+2] [Carboplatin]; settings: max 10 µM
How it was run: as §1

Dasatinib = compound: CC1=C(C(=CC=C1)Cl)NC(=O)C2=CN=C(S2)NC3=CC(=NC(=N3)C)N4CCN(CC4)CCO [Dasatinib]; settings: max 2 µM
How it was run: as §1

AZD4320 = compound: CN(CC[C@H](CSC1=CC=CC=C1)NC2=C(C=C(C=C2)S(=O)(=O)NC(=O)C3=CC=C(C=C3)N4CCC(CC4)[C@H](C5=CC=CC=C5C6=CC=C(C=C6)Cl)O)S(=O)(=O)C(F)(F)F)CCO [AZD4320]; settings: max 1 µM
How it was run: as §1

Prexasertib = compound: COc1cccc(OCCCN)c1-c1cc(Nc2cnc(C#N)cn2)n[nH]1 [Prexasertib]; settings: max 1 µM
How it was run: as §1

SN-38 = compound: CCc1c2c(nc3ccc(O)cc13)-c1cc3c(c(=O)n1C2)COC(=O)[C@]3(O)CC [SN-38]; settings: max 0.3 µM
How it was run: as §1

Gefitinib = compound: COc1cc2ncnc(Nc3ccc(F)c(Cl)c3)c2cc1OCCCN1CCOCC1 [Gefitinib]; settings: max 10 µM
How it was run: as §1

Etoposide = compound: COc1cc([C@@H]2c3cc4c(cc3[C@@H](O[C@@H]3O[C@@H]5CO[C@@H](C)O[C@H]5[C@H](O)[C@H]3O)[C@H]3COC(=O)[C@H]23)OCO4)cc(OC)c1O [Etoposide]; settings: max 10 µM
How it was run: as §1

Doxorubicin = compound: COc1cccc2c1C(=O)c1c(O)c3c(c(O)c1C2=O)C[C@@](O)(C(=O)CO)C[C@@H]3O[C@H]1C[C@H](N)[C@H](O)[C@H](C)O1 [Doxorubicin]; settings: max 1 µM
How it was run: as §1

Venetoclax = compound: CC1(C)CCC(CN2CCN(c3ccc(C(=O)NS(=O)(=O)c4ccc(NCC5CCOCC5)c([N+](=O)[O-])c4)c(Oc4cnc5[nH]ccc5c4)c3)CC2)=C(c2ccc(Cl)cc2)C1 [Venetoclax]; settings: max 1 µM
How it was run: as §1

AZD5153 = compound: COc1nnc2ccc(N3CCC(c4ccc(OCCN5CCN(C)C(=O)[C@H]5C)cc4)CC3)nn12 [AZD5153]; settings: max 1 µM
How it was run: as §1

SRA737 = compound: N#Cc1cnc(Nc2cc(NC[C@H]3CNCCO3)c(C(F)(F)F)cn2)cn1 [SRA737]; settings: max 10 µM
How it was run: as §1

Gemcitabine = compound: Nc1ccn([C@@H]2O[C@H](CO)[C@@H](O)C2(F)F)c(=O)n1 [Gemcitabine]; settings: max 0.3 µM
How it was run: as §1

AZD1390 = compound: CC(C)n1c(=O)n(C)c2cnc3cc(F)c(-c4ccc(OCCCN5CCCCC5)nc4)cc3c21 [AZD1390]; settings: max 0.3 µM
How it was run: as §1

AZD8186 = compound: C[C@@H](Nc1cc(F)cc(F)c1)c1cc(C(=O)N(C)C)cc2c(=O)cc(N3CCOCC3)oc12 [AZD8186]; settings: max 10 µM
How it was run: as §1

Alisertib = compound: COc1cc(Nc2ncc3c(n2)-c2ccc(Cl)cc2C(c2c(F)cccc2OC)=NC3)ccc1C(=O)O [Alisertib]; settings: max 10 µM
How it was run: as §1

Paclitaxel = compound: CC(=O)O[C@H]1C(=O)[C@@]2(C)[C@H]([C@H](OC(=O)c3ccccc3)[C@]3(O)C[C@H](OC(=O)[C@H](O)[C@@H](NC(=O)c4ccccc4)c4ccccc4)C(C)=C1C3(C)C)[C@]1(OC(C)=O)CO[C@@H]1C[C@@H]2O [Paclitaxel]; settings: max 3 µM
How it was run: as §1

Cell Line | IC50, cell viability 72 h (Trametinib) [nM] | IC50, cell viability 72 h (MK-2206) [nM] | IC50, cell viability 72 h (AZD7648) [nM] | IC50, cell viability 72 h [1] [nM] | IC50, cell viability 72 h (AZD5363) [nM] | IC50, cell viability 72 h (AZD6738) [nM] | IC50, cell viability 72 h (Crizotinib) [nM] | IC50, cell viability 72 h (AZD5991) [nM] | IC50, cell viability 72 h (Taselisib) [nM] | IC50, cell viability 72 h (Lapatinib) [nM] | IC50, cell viability 72 h (SG3199) [nM] | IC50, cell viability 72 h (5-Fluorouracil) [nM] | IC50, cell viability 72 h (AZD0156) [nM] | IC50, cell viability 72 h (Olaparib) [nM] | IC50, cell viability 72 h (Savolitinib) [nM] | IC50, cell viability 72 h (Palbociclib) [nM] | IC50, cell viability 72 h (AZD1775) [nM] | IC50, cell viability 72 h (AZD2811) [nM] | IC50, cell viability 72 h (Selumetinib) [nM] | IC50, cell viability 72 h (Carboplatin) [nM] | IC50, cell viability 72 h (Dasatinib) [nM] | IC50, cell viability 72 h (AZD4320) [nM] | IC50, cell viability 72 h (Prexasertib) [nM] | IC50, cell viability 72 h (SN-38) [nM] | IC50, cell viability 72 h (Gefitinib) [nM] | IC50, cell viability 72 h (Etoposide) [nM] | IC50, cell viability 72 h (Doxorubicin) [nM] | IC50, cell viability 72 h (Venetoclax) [nM] | IC50, cell viability 72 h (AZD5153) [nM] | IC50, cell viability 72 h (SRA737) [nM] | IC50, cell viability 72 h (Gemcitabine) [nM] | IC50, cell viability 72 h (AZD1390) [nM] | IC50, cell viability 72 h (AZD8186) [nM] | IC50, cell viability 72 h (Alisertib) [nM] | IC50, cell viability 72 h (Paclitaxel) [nM]
COR-L88 (Small Cell Lung Carcinoma) | > 1000 | > 10000 | > 10000 | > 5000 | > 10000 | > 10000 | > 10000 | > 1000 | > 10000 | > 10000 | > 1 | > 20000 | > 3000 | > 10000 | > 1000 | > 10000 | 1760 | > 1000 | > 10000 | > 10000 | > 2000 | 110 | 45.9 | > 300 | > 10000 | > 10000 | > 1000 | > 1000 | > 1000 | > 10000 | > 300 | > 300 | > 10000 | > 10000 | > 3000
C-33-A (Cervical Carcinoma) | 938 | > 10000 | > 10000 | > 5000 | 2640 | 1420 | > 10000 | > 1000 | > 10000 | > 10000 | > 1 | > 20000 | > 3000 | > 10000 | > 1000 | > 10000 | 206 | > 1000 | > 10000 | > 10000 | 781 | > 1000 | 52.8 | 20.1 | 8590 | 909 | 217 | > 1000 | > 1000 | > 10000 | 25.6 | > 300 | > 10000 | > 10000 | 19
LS-1034 (Colorectal Carcinoma) | 52 | > 10000 | > 10000 | > 5000 | > 10000 | 6050 | > 10000 | > 1000 | > 10000 | > 10000 | > 1 | > 20000 | > 3000 | > 10000 | > 1000 | > 10000 | 918 | > 1000 | 2420 | > 10000 | > 2000 | > 1000 | 238 | > 300 | > 10000 | > 10000 | > 1000 | > 1000 | 850 | > 10000 | 120 | > 300 | > 10000 | > 10000 | 590
